Results published in ChEMBL document CHEMBL1158439, “Non-isotopic dual parameter competition assay suitable for high-throughput screening of histone deacetylases” (Bioorg Med Chem Lett, 2009).

Legend:
[1] = Inhibition of HDAC from RT extract
[2] = molecular target: T1, Histone deacetylase-like amidohydrolase (Alcaligenes sp. (strain DSM 11172) (Bordetella sp. (strain FB188)), UniProt Q70I53); test: Displacement of Atto700-HA from Bordetella / Alcaligenes strain FB188 HDAH by fluorescence anisotropy; parameters: species or system Alcaligenaceae bacterium FB188
T1 sequence (Q70I53 whole entry): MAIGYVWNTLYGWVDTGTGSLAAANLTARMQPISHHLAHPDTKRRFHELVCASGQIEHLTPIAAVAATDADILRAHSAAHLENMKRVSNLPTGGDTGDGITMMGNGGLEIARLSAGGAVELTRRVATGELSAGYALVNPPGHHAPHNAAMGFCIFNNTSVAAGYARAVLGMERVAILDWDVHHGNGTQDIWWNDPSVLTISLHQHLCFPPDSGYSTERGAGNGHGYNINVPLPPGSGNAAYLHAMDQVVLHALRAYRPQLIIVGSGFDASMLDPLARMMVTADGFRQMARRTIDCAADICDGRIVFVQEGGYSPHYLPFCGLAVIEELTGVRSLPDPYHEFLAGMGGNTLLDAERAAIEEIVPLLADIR

[3] = molecular target: T1, Histone deacetylase-like amidohydrolase (Alcaligenes sp. (strain DSM 11172) (Bordetella sp. (strain FB188)), UniProt Q70I53); test: Inhibition of Bordetella / Alcaligenes strain FB188 HDAH by fluorimetric assay; parameters: species or system Alcaligenaceae bacterium FB188
[4] = Inhibition of Bordetella / Alcaligenes strain FB188 HDAC6 by fluorescence polarization assay; parameters: species or system Alcaligenaceae bacterium FB188
[5] = molecular target: T1, Histone deacetylase-like amidohydrolase (Alcaligenes sp. (strain DSM 11172) (Bordetella sp. (strain FB188)), UniProt Q70I53); test: Inhibition of Bordetella / Alcaligenes strain FB188 HDAH by fluorogenic enzyme assay; parameters: species or system Alcaligenaceae bacterium FB188
[6] = molecular target: T1, Histone deacetylase-like amidohydrolase (Alcaligenes sp. (strain DSM 11172) (Bordetella sp. (strain FB188)), UniProt Q70I53); test: Binding affinity to Bordetella / Alcaligenes strain FB188 HDAC by FRET assay; parameters: species or system Alcaligenaceae bacterium FB188
[7] = Displacement of Atto700-HA from Bordetella / Alcaligenes strain FB188 […] by fluorescence anisotropy; parameters: species or system Alcaligenaceae bacterium FB188
[8] = Inhibition of Bordetella / Alcaligenes strain FB188 HDAC6 by fluorogenic enzyme assay

Row | SMILES | IC50 [1] [nM] | Ki [2] [nM] | IC50 [3] [nM] | IC50 [5] [nM] | IC50 [7] [nM] | IC50 [8] [nM] | IC50 [4] [nM] | Ki [6] [nM]
1 | CCCCCC1OC1CC#CCCCCCCCC(=O)O (configuration not stated) |  | 20000 |  | 9200 | > 20000 |  |  | 4300
2 | CCC(=O)CCCCC[C@@H]1NC(=O)[C@H]2CCCCN2C(=O)[C@H]([C@@H](C)CC)NC(=O)[C@H](Cc2cn(OC)c3ccccc23)NC1=O [APICIDIN] |  | 9200 |  |  |  |  | 670 | 
3 | CCC1=C(OC)C(=O)C(CCCCCCCCCCC(C)=O)=C(C)C1=O | > 50000 | 1100 |  | 600 | > 50000 |  |  | 

The next lines start with results.

Row | IC50 [1] [nM] | Ki [2] [nM] | IC50 [3] [nM] | IC50 [5] [nM] | IC50 [7] [nM] | IC50 [8] [nM] | SMILES | IC50 [4] [nM] | Ki [6] [nM]
4 | 1 | 700 | 1200 |  |  |  | CC(/C=C/C(=O)NO)=C\[C@@H](C)C(=O)c1ccc(N(C)C)cc1 [TRICHOSTATIN] | 17 | 
5 | 600 | 1400 |  | 600 | 70 |  | O=C(CCCCCc1nc2cc3ccccc3cc2[nH]1)C(F)(F)F |  | 
6 | > 50000 | 10000 |  | 6200 | > 50000 |  | CCCCCCCCCCCC[C@@H](C)O[C@@H]1O[C@H](CO)[C@@H](O)[C@H](O)[C@H]1O[C@@H]1O[C@H](COC(C)=O)[C@@H](O)[C@H](O)[C@H]1O |  | 2000
7 | 8800 | > 100000 |  | 118000 |  | > 10000 | Nc1ccccc1NC(=O)c1ccc(CNC(=O)OCc2cccnc2)cc1 [ENTINOSTAT] |  | 
